Laboratory results reported in patent US20170298380A1, “IMIDAZOLINONE HERBICIDE RESISTANT BORAGE” (Bioriginal Food & Science Corp., priority 2016, published 2017).
“Also recorded” adds a separate entry of the source. Where two headings read alike, the source gives them in different places.

Legend:
[1] = tested on: borage seeds (M1); type: in vivo, Borago officinalis
Protocol: Approximately 164000 borage seeds were divided into 6 groups for mutagenesis. The seeds (M1) were soaked in 0.5%, 1.0% and 1.5% (v/v) of EMS solutions for 8 hours and 16 hours respectively, and then rinsed with tap water for 4 hours. After washing, the seeds are dried with paper towel. The mutagenized seeds were sowed in 48 plots in a research farm in Saskatoon, SK, in June, 2012. Each plot was 7.5×1.5 m in size and sowed 86 g of mutagenized seeds. M1 borage plants were grown to maturity and M2 seeds were harvested by groups according to the EMS treatments.

[2] = tested on: M4 homozygous imidazolinone-resistant borage (AHAS1 mutant); type: in vivo, Borago officinalis; conditions: AHAS1 mutant line, 2X of the recommended rate, 21 days after spraying
Protocol: Adjuvant reagent for each herbicide was added into spray solution accordingly. Sprayed M4 borage plants were visually evaluated at 21 days after spraying by comparing with wild-type controls.

[3] = tested on: AHAS enzyme of homozygous resistant borage (AHAS1 mutant); assay: In vitro AHAS activity assay, resistant (AHAS1 mutant) borage leaf protein extract; type: biochemical, Borago officinalis; conditions: across all imazamox concentrations (0-625 μM)
From the text: (§1) The herbicide imazamox is an inhibitor of the AHAS enzyme. […] It has been shown from the above Examples that the AHAS1 mutant borage line can tolerate two times the recommended dosage of “Solo” herbicide and the tolerance is caused by the single nucleotide mutation of the AHAS1 gene. As such, the AHAS activity level of the mutant plants would provide further evidence to support the conclusion. AHAS enzyme activity is generally measured using a discontinuous colorimetric assay based on the method developed by Singh et al. (Singh B K, et al. Assay of acetohydroxyacid synthase. Analytical Biochemistry 171 (1988) 173-179). In this method, the crude protein is incubated with the substrate for a fixed time to generate intermediate acetolactate that is then converted to acetoin under decarboxylation. Finally, the reaction of acetoin with creatine and α-naphthol forms a pink-colored product which can be measured at 520 nm wavelength in a spectrometer. As a result, the AHAS activity level can be estimated based on the color density. See Duggleby R G and Pang S S. (2000) supra. […]
(§2) The gummy protein layer was re-dissolved in 1.4 mL incubation buffer containing 50 mM K2HPO4 buffer (pH 7.0), 100 mM sodium pyruvate, 10 mM MgCl2, 1 mM TPP and 1 μM FAD. The amount of protein in each sample was determined immediately by the Bio-Rad protein assay using a dye reagent (#500-0006). […]

[4] = tested on: AHAS enzyme of susceptible borage (wild-type); assay: In vitro AHAS activity assay, susceptible (wild-type) borage leaf protein extract; type: biochemical, Borago officinalis; conditions: 625 μM imazamox
From the text: as §1, §2

`CCOS(C)(=O)=O` [EMS, ethyl methanesulfonate] was tested, and the “Germination Rate (%)” value ([1]; 0.5% EMS 8 hrs) was 19%, the “Germination Rate (%)” value ([1]; 0.5% EMS 16 hrs) was 8% and the “Germination Rate (%)” value ([1]; 1.0% EMS 8 hrs) was 15%. For the same compound, the “Germination Rate (%)” value ([1]; 1.0% EMS 16 hrs) was 9%, the “Germination Rate (%)” value ([1]; 1.5% EMS 8 hrs) was 11% and the “Germination Rate (%)” value ([1]; 1.5% EMS 16 hrs) was 8%. For the same compound, the germination rate ([1]; all EMS-treated M1 seeds sown in the field) was “about 12%” and the “sterility of M1” value ([1]; in vivo) was “pronounced sterility”.

For `CCc1cnc(C2=NC(C)(C(C)C)C(=O)N2)c(C(=O)O)c1` (stereo not shown) [imazethapyr, 2-[4.5-dihydro-4-methyl-4-(1-methylethyl)-5-oxo-1H-imidazol-2-yl]-5-ethyl-3-pyridinecarboxylic acid], the “level of resistance / tolerance (in words)” value [2] was “strong resistance; also recorded: equally strong resistant level”.

In the case of `COc1nn(C(=O)[N-]S(=O)(=O)c2ccccc2OC(F)(F)F)c(=O)n1C.[Na+]` [flucarbazone sodium], the “level of resistance / tolerance (in words)” value [2] is reported as “some tolerance”.

`COCc1cnc(C2=NC(C)(C(C)C)C(=O)N2)c(C(=O)O)c1` (stereo not shown) [imazamox, 2-[4,5-dihydro-4-methyl-4-(1-methylethyl)-5-oxo-1H-imidazol-2-yl]-5-(methoxymethl)-3-pyridinecarboxylic acid.] was tested, and the “level of resistance / tolerance (in words)” value [2] was “strong resistance; also recorded: equally strong resistant level”, the “AHAS activity of mutant compared with wild type” value [3] was “significantly higher AHAS activity than the wild type borage” and the AHAS activity retained [4] was “zero and completely inhibited”.
